Entries after “also recorded” stand apart in the source; their conditions may differ.
What was measured:
[1] = tested on: LoVo human colon cancer cell line; experiment: Trypan blue staining apoptosis assay; type: cell-based; details: LoVo (p53 WT/LIG4 MT); 25 μM and 50 μM, 48 hours
Description: (§1) In order to analyze the degree of apoptosis of Compound A, which is a novel PARP/Tankyrase simultaneous inhibitor according to a p53 genotype and LIG4 genotype, the present inventors treated a novel PARP/Tankyrase simultaneous inhibitor, Compound A, and a competitive drug PARP inhibitor, olaparib, in RKO, LoVo human colon cancer cell line in which the p53 gene is a normal type and the LIG4 gene is a mutant type and an SW620 human colon cancer cell line in which the p53 gene is a mutant type and the LIG4 gene is a normal type. The number of cells was measured by trypan blue staining assay to confirm the degree of apoptosis. The conditions and methods of the experiment were as follows: RKO, LoVo human colon cancer cell line in which the p53 gene is a normal type and the LIG4 gene is a mutant type and the SW620 human colon cancer cell line in which the p53 gene is a mutant type and the LIG4 gene is a normal type were cultured in RPMI1640 (10% FBS, 1% penicillin/streptomycin) and cultured in a 60 mm plate at 1×10^5 per well for 24 hours at 37° C. Compound A, which is a novel PARP/Tankyrase simultaneous inhibitor, and olaparib, which is a competitive drug PARP inhibitor, were treated with each of 25 μM and 50 μM and were cultured for 48 hours. The number of cells was measured by trypan blue staining assay to confirm the degree of apoptosis.
In order to analyze the degree of apoptosis of Compound A, which is a novel PARP/Tankyrase simultaneous inhibitor, according to the p53 genotype and an LIG4 genotype, the present inventors treated Compounds A and B, which are novel PARP/Tankyrase simultaneous inhibitors, in the RKO and LoVo human colon cancer cell lines in which the p53 gene is a normal type and an LIG4 gene is a mutant type. Then, the number of cells was measured by trypan blue staining assay to confirm the degree of apoptosis. The RKO and LoVo human colon cancer cell lines were cultured under the same conditions as in Example 5. […] After 48 hours of culturing, the number of cells was measured by trypan blue staining assay to confirm the degree of apoptosis.

[2] = tested on: RKO human colon cancer cell line; experiment: Trypan blue staining apoptosis assay; type: cell-based; details: RKO (p53 WT/LIG4 MT); 25 μM and 50 μM, 48 hours
Description: as §1
In order to analyze the degree of apoptosis of Compound A, which is a novel PARP/Tankyrase simultaneous inhibitor, according to the p53 genotype and an LIG4 genotype, the present inventors treated Compounds A and B, which are novel PARP/Tankyrase simultaneous inhibitors, in the RKO and LoVo human colon cancer cell lines in which the p53 gene is a normal type and an LIG4 gene is a mutant type. Then, the number of cells was measured by trypan blue staining assay to confirm the degree of apoptosis. The RKO and LoVo human colon cancer cell lines were cultured under the same conditions as in Example 5. Compounds A and B, which are novel PARP/Tankyrase simultaneous inhibitors, were treated with 25 μM and 50 μM, respectively, for 48 hours. After 48 hours of culturing, the number of cells was measured by trypan blue staining assay to confirm the degree of apoptosis. […]

[3] = tested on: SW620 human colon cancer cell line; experiment: Trypan blue staining apoptosis assay; type: cell-based; details: SW620 (p53 MT/LIG4 WT); 25 μM and 50 μM, 48 hours
Description: as §1
(§2) In order to analyze the degree of apoptosis of Compounds A and B, which are novel PARP/Tankyrase simultaneous inhibitors, in a cell line RKO in which the p53 genotype is a normal type and an LIG4 genotype is a mutant type, a cell line SW620 in which the p53 genotype is a mutant type and an LIG4 genotype is a normal type, a cell line HCT8 in which the p53 genotype and an LIG4 genotype are normal, and a cell line KM12C in which the p53 genotype and an LIG4 genotype are mutant, the human colon cancer cell lines of RKO, HCT, SW620 and KM12C with different p53 genotype and LIG4 genotype were cultured in RPMI1640 (10% FBS, 1% penicillin/streptomycin) and cultured in a 60 mm plate at 1×10^5 per well for 24 hours at 37° C. Compounds A and B, which are novel PARP/Tankyrase simultaneous inhibitors, and olaparib, which is a competitive drug PARP inhibitor, and NVP-TNKS656, which is a Tankyrase inhibitor, were treated with each of 25 μM and 50 μM. After 48 hours of culturing, the number of cells was measured by trypan blue staining assay to confirm the degree of apoptosis.

[4] = tested on: KM12C human colon cancer cell line; experiment: Xenograft tumor inhibition; type: in vivo, nude mouse (BALB/c-nude); details: KM12C (p53 MT/LIG4 MT) xenograft, orally 25 mpk and 50 mpk daily
Description: (§3) In order to analyze the tumor inhibition effect on Compound A, which is a novel PARP/Tankyrase simultaneous inhibitor, in an in vivo animal model when a p53 genotype and an LIG4 genotype are mutant types, the present inventors transplanted the KM12C human colon cancer cell line in which a p53 genotype and an LIG4 genotype are mutant types into a 6-week-old nude mouse (BALB/c-nude, purchased from the central experimental animal) and administered with Compound A, which is a novel PARP/Tankyrase simultaneous inhibitor, and olaparib, which is a competitive drug PARP inhibitor. Then, the size of tumor was measured to confirm the degree of tumor inhibition effect. The conditions and methods of the experiment were as follows: KM12C human colon cancer cell line in which a p53 genotype and an LIG4 genotype are mutant types was cultured in RPMI1640 (10% FBS, 1% penicillin/streptomycin). When the size of the tumor reached 100 mm^3 after being transplanted into a nude mouse per 1×10^7, Compound A, which is a novel PARP/Tankyrase simultaneous inhibitor, and olaparib, which is a competitive drug PARP inhibitor, were orally administered at 25 mpk and 50 mpk daily for a total of 18 days. The size of a tumor was measured every three days. After the completion of drug administration, the tumors were harvested and weighed.
as §3, with “on Compound B, which is” for “on Compound A, which is”, “with Compound B, which is” for “with Compound A, which is”, “PARP/Tankyrase simultaneous inhibitor. Then,” for “PARP/Tankyrase simultaneous inhibitor, and olaparib, which is a competitive drug PARP inhibitor. Then,”, “1×10^7, Compound B, which is” for “1×10^7, Compound A, which is”, “simultaneous inhibitor, was orally administered” for “simultaneous inhibitor, and olaparib, which is a competitive drug PARP inhibitor, were orally administered”, “total of 15 days. The” for “total of 18 days. The”

[5] = tested on: HCT8 human colon cancer cell line; experiment: Trypan blue staining apoptosis assay; type: cell-based; details: HCT8 (p53 WT/LIG4 WT); 25 μM and 50 μM, 48 hours
Description: as §2

[6] = tested on: KM12C human colon cancer cell line; experiment: Trypan blue staining apoptosis assay; type: cell-based; details: KM12C (p53 MT/LIG4 MT); 25 μM and 50 μM, 48 hours
Description: as §2

SMILES: N#Cc1ccc(N2CCN(Cc3ccc4c5c(c(=O)[nH]c4c3)CCCN5)CC2)nc1 [Compound B, 6-{4-[(5-oxo-1,2,3,4,5,6-hexahydrobenzo[h][1,6]naphthyridin-8-yl)methyl]piperazin-1-yl}nicotinonitrile]
- degree of apoptosis (trypan blue cell count) [1]: apoptosis effect is high by virtue of Compound B as compared to Compound A
- degree of apoptosis (trypan blue cell count) [2]: apoptosis effect is high by virtue of Compound B as compared to Compound A; also recorded: possible to observe the apoptosis
- degree of apoptosis (trypan blue cell count) [3]: No apoptosis occurred
- tumor size ([4]; 15 days): no change
- tumor weight ([4]; 15 days): no change
- degree of apoptosis (trypan blue cell count) [5]: No apoptosis occurred
- degree of apoptosis (trypan blue cell count) [6]: No apoptosis occurred

SMILES: CCOc1cc(CN(C)C)cc2[nH]c(=O)c3c(c12)NCCC3 [Compound A, 8-[(dimethylamino)methyl]-10-ethoxy-1,2,3,4-tetrahydrobenzo[h][1,6]naphthyridin-5(6H)-one]
- degree of apoptosis (trypan blue cell count) [1]: apoptosis was induced
- degree of apoptosis (trypan blue cell count) [2]: apoptosis was induced; also recorded: possible to observe the apoptosis
- degree of apoptosis (trypan blue cell count) [3]: low apoptosis effect; also recorded: No apoptosis occurred
- tumor size ([4]; 18 days): no change
- tumor weight ([4]; 18 days): no change
- degree of apoptosis (trypan blue cell count) [5]: No apoptosis occurred
- degree of apoptosis (trypan blue cell count) [6]: No apoptosis occurred

SMILES: O=C(c1cc(Cc2n[nH]c(=O)c3ccccc23)ccc1F)N1CCN(C(=O)C2CC2)CC1 [olaparib, reference compound]
- degree of apoptosis (trypan blue cell count) [1]: no apoptosis effect was shown
- degree of apoptosis (trypan blue cell count) [2]: no apoptosis effect was shown; also recorded: no change in apoptosis
- degree of apoptosis (trypan blue cell count) [3]: low apoptosis effect; also recorded: No apoptosis occurred
- tumor size ([4]; 18 days): no change
- tumor weight ([4]; 18 days): no change
- degree of apoptosis (trypan blue cell count) [5]: No apoptosis occurred
- degree of apoptosis (trypan blue cell count) [6]: No apoptosis occurred

Source: patent US10683553B2, “Method for determining sensitivity to simultaneous inhibitor against PARP and Tankyrase” (THE ASAN FOUNDATION, priority 2015, dated 2020)
